Test results published in patent publication US12466849B2, “Anti-viral and anti-tumoral compounds” (YEDA RESEARCH AND DEVELOPMENT CO. LTD, priority 2020, dated 2025).
In brackets after ≈: the same amount, converted by molar mass. Where two headings read alike, the source gives them in different places.

Legend:
[1] = Liver (hepatic) S9 stability, rat
[2] = Liver (hepatic) S9 stability, human
[3] = system: Influenza B
[4] = system: adenovirus-5 (Ad5)
[5] = system: HCMV AD169; assay: HCMV plaque reduction assay, MRC-5 cells, strain AD169; assay type: cell-based, Human cytomegalovirus; details: for EC50: plaque assay, 6-days duration
[6] = system: SARS-CoV-2
[7] = system: West Nile virus (WNV)
[8] = system: enterovirus-68 (EV-68)
[9] = system: TCRV
[10] = system: SARS-CoV
[11] = system: Rift Valley fever virus (RVFV)
[12] = system: Venezuelan equine encephalitis virus (VEEV)
[13] = system: MRC-5 cells
[14] = system: influenza A(H5N1)
[15] = system: RSV
[16] = system: influenza A(H1N1)
[17] = system: poliovirus-1 (POV-1)
[18] = system: Yellow fever virus (YFV)
[19] = system: Powassan virus (POWV)
[20] = system: Zika virus
[21] = system: dengue virus-2 (DV-2)
[22] = system: Japanese encephalitis virus (JEV)
[23] = Secondary JCV assay (qPCR), COS7 cells; details: African green monkey
[24] = system: JC virus (JCV); assay: Secondary JCV assay (qPCR), COS7 cells
[25] = in vitro; details: human
[26] = in vitro; details: rat
[27] = system: JC virus (JCV)
[28] = system: JC virus (JCV); assay: microbe, parasite or virus in culture; details: JC polyomavirus, COS-7
[29] = in vitro; details: human; remark: listed apart in the source
[30] = human
[31] = in vitro; details: human; remark: listed apart in the source
[32] = MRC-5 cytotoxicity assay (MTS) and visual cytotoxicity; details: human
[33] = in vitro; details: African green monkey
[34] = system: BK virus (BKV), Gardner strain; assay: microbe, parasite or virus in culture; details: Betapolyomavirus hominis, HFF
[35] = in vitro; details: both, human, plasma
[36] = rat; for Peak area ratio, parent: 1 µM
[37] = system: BK virus (BKV), Gardner strain
[38] = in vitro; details: male, SD, rat, plasma
[39] = system: HFF cells; assay: Cell proliferation assay, human foreskin fibroblast (HFF) cells; assay type: cell-based; details: Homo sapiens, 72 h, cell number
[40] = system: enterovirus-68 (EV-68); assay: organism not typed; details: RD, read-out: EQ50
[41] = target: T1, SARS-Cov2 RdRp (nsp12-nsp7-nsp8) (Severe acute respiratory syndrome coronavirus 2, UniProt P0DTD1); assay type: biochemical; details: after addition of GTP and CTP (third and fourth nucleotides)
[42] = target: T1, SARS-Cov2 RdRp (nsp12-nsp7-nsp8); assay type: biochemical; details: primer extension; analog at 100 uM, printed 100 mM
[43] = Vero 76 cells without virus, test compounds

Molecule COc1ccc2c(c1)[C@]13CCCC[C@@H]1[C@H](C2)N(C)CC3 [Dextromethorphan] has a CLhep ([1]; predicted from S9 CLint (well-stirred model)) of 37.2 mL/min/kg, a half-life at 1 μM ([1]; s9) of 0.98 h and a microsomal CLint at 1 μM ([1]; s9) of 23.6 µL/min/mg. The T1/2 ([2]; human liver S9, 0.5 mg/mL, NADPH incubation (Table 24 gives without NADPH)) was 1.57 h, the microsomal CLint at 1 μM ([2]; human, s9) was 14.7 µL/min/mg and the CLhep ([2]; human, predicted from S9 CLint (well-stirred model)) was 14.3 mL/min/kg.
For O=c1ccn([C@@H]2OC(CO)=C[C@H]2O)c(=O)[nH]1 [AB21649], the CC50 [3] was 1.3 mM, the EC50 [3] was 0.31 mM and the “antiviral activity against Influenza B (in words)” value [3] was “exhibits antiviral activity”. The SI ([3]; Influenza B, SI = CC50/EC50) was 4.2, the CC50 [4] was > 2 mM and the EC50 [4] was > 2 mM. For the same molecule, the SI ([4]; Ad5, SI = CC50/EC50) was 0, the EC50 ([5]; hCMV AD169, MRC5 cells) was > 0.1 mM and the CC50 [6] was > 2 mM. For the same molecule, the EC50 [6] was > 2 mM, the SI ([6]; SARS-CoV-2, SI = CC50/EC50) was 0 and the CC50 [7] was 1.4 mM. For the same molecule, the EC50 [7] was > 1.4 mM, the SI ([7]; WNV, SI = CC50/EC50) was 0 and the CC50 [8] was 0.39 mM. The EC50 ([8]; 33°C) was > 0.39 mM, the SI ([8]; EV-68, SI = CC50/EC50) was 0 and the CC50 [9] was 1.2 mM. For the same molecule, the EC50 [9] was > 1.2 mM, the SI [9] was 0 and the SI ([10]; SARS-CoV, SI = CC50/EC50) was 0. For the same molecule, the EC50 ([10]; SARS-CoV, Vero 76 cells, test compounds) was > 1.5 mM, the CC50 [10, 43] was 1.5 mM and the SI ([11]; RVFV, SI = CC50/EC50) was 0. The EC50 ([11]; RVFV, Vero 76 cells, test compounds) was > 1.1 mM, the CC50 [11, 43] was 1.1 mM and the SI ([12]; VEEV, SI = CC50/EC50) was 0. The EC50 ([12]; VEEV, Vero 76 cells, test compounds) was > 1.1 mM, the CC50 [12, 43] was 1.1 mM and the CC50 [13] was > 0.1 mM. The CC50 ([14]; MDCK cells without virus, test compounds) was 1.3 mM, the “antiviral activity against Influenza (H5N1) (in words)” value ([14]; Table 11) was “exhibits antiviral activity” and the EC50 ([14]; influenza A(H5N1), MDCK cells, test compounds) was 0.8 mM. The SI ([14]; influenza A(H5N1), SI = CC50/EC50) was 1.6, the CC50 [15] was 1.9 mM and the EC50 [15] was > 1.9 mM. It also gave an SI ([15]; RSV, SI = CC50/EC50) of 0, a CC50 [16] of 1.4 mM and an EC50 [16] of 0.56 mM. For the same molecule, the “antiviral activity against Influenza (H1N1) (in words)” value [16] was “exhibits antiviral activity”, the SI ([16]; influenza A(H1N1), SI = CC50/EC50) was 2.5 and the SI ([17]; POV-1, SI = CC50/EC50) was 0. For the same molecule, the EC50 ([17]; POV-1, Vero 76 cells, test compounds) was > 1 mM, the CC50 [17, 43] was 1 mM and the CC50 ([18]; Huh7 cells without virus, test compounds) was > 2 mM. The EC50 ([18]; YFV, Huh7 cells, test compounds) was > 2 mM, the SI ([18]; YFV, SI = CC50/EC50) was 0 and the CC50 ([19]; BHK-21 cells without virus, test compounds) was > 2 mM. For the same molecule, the EC50 ([19]; POWV, BHK-21 cells, test compounds) was > 2 mM, the SI ([19]; POWV, SI = CC50/EC50) was 0 and the CC50 [20] was 1.5 mM. The EC50 [20] was > 1.5 mM, the SI ([20]; Zika, SI = CC50/EC50) was 0 and the CC50 [21] was > 2 mM. For the same molecule, the EC50 [21] was > 2 mM, the SI ([21]; DV-2, SI = CC50/EC50) was 0 and the CC50 [22] was 1.7 mM. The EC50 [22] was > 1.7 mM and the SI ([22]; JEV, SI = CC50/EC50) was 0.
With CCCCCCCCCCCCCCCCOCCCOP(=O)(O)OCC1=CC(O)C(n2ccc(=O)[nH]c2=O)O1 (centres unmarked) [AB23039] the CC50 at 7 days [23] was 0.0468 mM, the EC50 ([24]; JC polyomavirus, COS-7, 168 h) was 0.00307 mM and the EC90 ([24]; JC polyomavirus, COS-7, 168 h) was 0.00944 mM. For the same molecule, the Activity ([24]; secondary JCV assay, COS7 cells, class by SI50) was “MOD (MOD (Moderately Active) SI50 = 10-19.9)”, the “antiviral activity against JCV (in words)” value ([24]; secondary testing, COS7 cells) was “moderate” and the EC50 ([5]; Human betaherpesvirus 5, 144 h, hCMV AD169, MRC5 cells) was 0.0181 mM. The “antiviral activity against hCMV (in words)” value ([5]; MRC5 cells, AD169 strain) was “impressive antiviral activity”, the “Selectivity Index (CC50/EC50)” value ([5]; hCMV AD169, MRC5 cells) was 2.33 and the CC50 [25] was 0.0909 mM. The microsomal CLint at 1 μM ([26]; s9) was 4 µL/min/mg, the half-life at 1 μM ([26]; s9, T1/2) was 5.79 h and the Activity [27] was “HI (key: NA (Not Active) SI50 = 0-3.9; LO (Slightly Active) SI50 = 4-9.9; MOD (Moderately Active) SI50 = 10-19.9; HI (Highly Active) SI50 = ≥20)”. The “activity against JC virus (in words)” value [27] was “high activity”, the EC50 [28] was 0.00021 mM and the EC90 [28] was 0.0234 mM. For the same molecule, the CC50 at 7 d [29] was > 0.15 mM, the CLhep ([30]; 1 μM) was 9.1 mL/min/kg and the Eh ([30]; 1 μM) was 44%. The “Peak area ratio, parent” value ([30]; 15 min, 1 μM) was 3.41E−01, the “Peak area ratio, parent” value ([30]; 60 min, 1 μM) was 3.09E−01 and the “hydrolytic stability in hepatic S9 (in words)” value ([30]; s9) was “most stable”. It also gave a T1/2 ([30]; s9, 1 μM) of 4.42 h, a microsomal CLint at 1 μM ([31]; s9) of 5.2 µL/min/mg and a half-life at 1 μM ([31]; s9, T1/2) of 4.41 h. It also gave a CC50 at 6 days [32] of 0.0422 mM, a CC50 [33] of 0.0718 mM and an EC50 [34] of 0.00086 mM. For the same molecule, the EC90 [34] was 0.00776 mM, the half-life at 0.75 µM [35] was > 9.32 h and the half-life at 0.75 μM [35] was > 9.3 h. For the same molecule, the CLhep ([36]; 1 μM) was 14.3 mL/min/kg, the Eh ([36]; 1 μM) was 26% and the “Peak area ratio, parent” value ([36]; 15 min) was 3.61E−01. The “Peak area ratio, parent” value ([36]; 60 min) was 3.25E−01, the “hydrolytic stability in hepatic S9 (in words)” value ([36]; s9) was “most stable” and the T1/2 ([36]; s9, 1 μM) was 5.78 h. The Activity [37] was “HI (key: NA (Not Active) SI50 = 0-3.9; LO (Slightly Active) SI50 = 4-9.9; MOD (Moderately Active) SI50 = 10-19.9; HI (Highly Active) SI50 = ≥20)”, the “activity against BK virus (in words)” value [37] was “high activity” and the half-life at 0.75 µM [38] was > 9.32 h. For the same molecule, the half-life at 0.75 μM [38] was > 9.3 h and the IC50 [39] was > 0.1 mM.
In the case of CCOC(=O)c1ccc(OCCC2CCN(c3ccc(C)nn3)CC2)cc1 [Pirodavir], the CC50 ([8]; human) is reported as 4.3 µg/mL and the EC50 [40] is reported as 0.039 µg/mL (≈ 0.106 µM).
For N#C[C@@]1(c2ccc3c(N)ncnn23)OC(COP(=O)(O)OP(=O)(O)OP(=O)(O)O)=C[C@H]1O [ddhREM-TP, ddhRemdesivir], the “chain termination of RNA synthesis (in words)” value [41] was “caused termination of RNA synthesis” and the “incorporation into RNA by SARS-Cov2 RdRp (in words)” value [42] was “incorporated into RNA as ATP analogs”.
